Experimental data as given in publication PMC6149849, “Cymantrenyl-Nucleobases: Synthesis, Anticancer, Antitrypanosomal and Antimicrobial Activity Studies” (Molecules : A Journal of Synthetic Chemistry and Natural …, 2017).
≈ marks a conversion by molar mass, not a printed value.

Key:
in vitro = details: human
Protocol: (§1) All of the cultures were maintained at 37 °C in a humidified atmosphere containing 5% of CO2. Toxicity assays were performed, as previously described, with some modifications. In brief, trypanosomes and HL-60 cells were seeded at an initial cell density of 10^4/mL and 5 × 10^4/mL, respectively, in 96-well plates in a final volume of 200 μL culture medium containing various concentrations of test compounds dissolved in 100% DMSO. […] The controls contained DMSO alone. In all of the experiments, the final DMSO concentration was 0.9%. After 24 h incubation, 20 µL of a 0.5 mM resazurin solution prepared in PBS was added and the cultures were incubated for a further 48 h. Resazurin is a vital dye that, when being reduced by living cells, changes its colour from blue to pink. Thus, by measuring absorbance, the proliferation of cells can be easily determined. The change in absorbance was read with a microplate reader using a test wavelength of 570 nm and a reference wavelength of 630 nm. GI50 values were calculated by linear interpolation according to the method described by Huber and Koella. MIC values were determined microscopically.

[1] = tested on: human myeloid leukemia HL-60 cells; assay: in vitro; details: human, 72 h
Protocol: as §1

[2] = tested on: bloodstream forms of T. brucei clone 427-221a; assay: Trypanocidal assay, resazurin viability assay; type: cell-based, Trypanosoma brucei
Protocol: as §1

[3] = tested on: Clinical S. epidermidis (MSSA) 43/12; assay: Antibacterial liquid microdilution, clinical isolate; type: cell-based, Staphylococcus epidermidis
Protocol: (§2) This lack of activity against E. coli can be probably explained by an impeded cellular uptake of the compounds through the Gram-negative cell wall that consists of two layers and effective protein efflux pump systems. The antibacterial activities of 1 and C were further tested against four clinical isolates of S. aureus and two clinical isolates of S. epidermidis (Table 4).
(§3) The antibacterial activity of CymH, 1–7 and C and the reference drugs penicillin G and polymyxin B was tested by the liquid microdilution method under standard conditions using twofold dilution series, as described in the Clinical and Laboratory Standards Institute (CLSI), reference method M07-A8, and expressed as minimal inhibitory concentration (MIC) values. A panel of Gram-positive bacterial strains, S. aureus ATCC® 29213 (sensitive to methicillin, (MSSA)), S. aureus ATCC® 43300 (resistant to methicillin, (MRSA)), S. aureus ATCC 700787™ (intermediate to vancomycin, (VISA)), and S. epidermidis ATCC 12228™, and one Gram-negative, strain E. coli ATCC BAA-198™ (ESBL) were used. In addition, four clinical isolates of S. aureus (MSSA and MRSA) and two clinical isolates of S. epidermidis that were collected from different patients at the Medical University of Warsaw, Poland, were also tested. The bacterial cells were cultivated on tryptic soy agar (TSA) and nutrient agar (NA), according to ATCC recommendations. All of the strains were incubated at 37 °C. Tested compounds were dissolved in DMSO and then serially diluted twofold with cation-adjusted Mueller-Hinton broth (CAMHB). Then, 95 µL of the dilutions were dispensed into microdilution sterile plates (Mar-Four), followed by the addition of 5 µL of bacteria inoculum containing 5 × 10^4 CFU/mL. The final concentrations of the compounds ranged from 512 to 2 µg/mL. Each compound was tested in triplicate, and Penicillin G (8–0.15 µg/mL) and Polymyxin B (256–0.0625 µg/mL) were used as controls. The plates were incubated at 37 °C for 18 to 24 h depending on the bacterial strain. Thereafter, the absorbance was measured at λ = 540 nm and λ = 595 nm using a Spectrostar Omega microplate reader (BMG Labtech, Offenburg, Germany). The MIC value was defined as the lowest concentration of a compound that reduced the growth by 100%.

[4] = tested on: Clinical S. epidermidis (MSSA) 37/12; assay: as above; type: cell-based, Staphylococcus epidermidis
Protocol: as §2, §3

[5] = tested on: S. epidermidis ATCC 12228; assay: Antibacterial liquid microdilution (CLSI M07-A8); type: cell-based, Staphylococcus epidermidis
Protocol: (§4) Organometallic compounds play an increasingly important role in the search for new antibacterial agents. We, therefore, thought to investigate also the bactericidal activity of the newly synthesized cymantrenes 1–7, compound C and CymH. The antibacterial activity of the compounds was tested against Gram-positive methicillin-sensitive Staphylococcus aureus (MSSA), methicillin-resistant S. aureus (MRSA), vancomycin-intermediate S. aureus (VISA), S. epidermidis, and Gram-negative Escherichia coli bacterial strains, and expressed as minimal inhibitory concentration (MIC) values (Table 3).
as §3

[6] = tested on: Clinical S. aureus (MRSA) 44/12; assay: Antibacterial liquid microdilution, clinical isolate; type: cell-based, Staphylococcus aureus
Protocol: as §2, §3

[7] = tested on: Clinical S. aureus (MSSA) 26/11; assay: as above; type: cell-based, Staphylococcus aureus
Protocol: as §2, §3

[8] = tested on: Clinical S. aureus (MSSA) 30/11; assay: as above; type: cell-based, Staphylococcus aureus
Protocol: as §2, §3

[9] = tested on: Clinical S. aureus (MRSA) 31/12; assay: as above; type: cell-based, Staphylococcus aureus
Protocol: as §2, §3

[10] = tested on: E. coli ATCC BAA-198 (ESBL); assay: Antibacterial liquid microdilution (CLSI M07-A8); type: cell-based, Escherichia coli
Protocol: as §4, §3

[11] = tested on: S. aureus ATCC 29213 (MSSA); assay: Antibacterial liquid microdilution (CLSI M07-A8); type: cell-based, Staphylococcus aureus; details: 18 to 24 h
Protocol: as §4, §3

[12] = tested on: S. aureus ATCC 43300 (MRSA); assay: Antibacterial liquid microdilution (CLSI M07-A8); type: cell-based, Staphylococcus aureus; details: 18 to 24 h
Protocol: as §4, §3

[13] = tested on: S. aureus ATCC 700787 (VISA); assay: Antibacterial liquid microdilution (CLSI M07-A8); type: cell-based, Staphylococcus aureus; details: 18 to 24 h
Protocol: as §4, §3

For `Cc1ccc(C(=O)Nc2ccc(S(=O)(=O)O)c3cc(S(=O)(=O)O)cc(S(=O)(=O)O)c23)cc1NC(=O)c1cccc(NC(=O)Nc2cccc(C(=O)Nc3cc(C(=O)Nc4ccc(S(=O)(=O)O)c5cc(S(=O)(=O)O)cc(S(=O)(=O)O)c45)ccc3C)c2)c1` [Suramin, suramin, reference compound], the GI50 at 72 h (in vitro) was > 100000 nM, the “HL-60 MIC” value [1] was >100 µM and the GI50 ([2]; Trypanosoma brucei, 50% growth inhibition) was 39 ± 3 nM. For the same compound, the MIC ([2]; Trypanosoma brucei, concentration at which all cells were killed, determined microscopically) was 0.1 to 1 µM (≈ 0.13 to 1.3 µg/mL) and the “Selectivity GI50 Ratio” value ([2]; ratio of cytotoxic (HL-60) to trypanocidal (T. brucei) activity) was >2564.
`CC1(C)S[C@@H]2[C@H](NC(=O)Cc3ccccc3)C(=O)N2[C@H]1C(=O)O` [penicillin G, reference compound] gave an MIC ([3]; Staphylococcus epidermidis, MSSA) of 8 µg/mL (≈ 23.9 µM), an MIC ([4]; Staphylococcus epidermidis, MSSA, read-out: MIC, Clinical S. epidermidis 37/12) of 16 µg/mL (≈ 47.8 µM) and an MIC ([5]; Staphylococcus epidermidis, ATCC12228, 18 to 24 h) of 2 µg/mL (≈ 5.98 µM). For the same compound, the MIC ([6]; Staphylococcus aureus, MRSA) was 8 µg/mL (≈ 23.9 µM), the MIC ([7]; Staphylococcus aureus, MSSA) was 0.5 µg/mL (≈ 1.5 µM) and the MIC ([8]; Staphylococcus aureus, MSSA) was 2 µg/mL (≈ 5.98 µM). The MIC ([9]; Staphylococcus aureus, MRSA) was 32 µg/mL (≈ 95.7 µM), the MIC ([10]; Escherichia coli, ATCCBAA198, 18 to 24 h) was > 256 µg/mL and the MIC ([11]; Staphylococcus aureus) was 2 µg/mL (≈ 5.98 µM). The MIC ([12]; Staphylococcus aureus) was 16 µg/mL (≈ 47.8 µM) and the MIC ([13]; Staphylococcus aureus) was 32 µg/mL (≈ 95.7 µM).
For polymyxin B [reference compound], the “MIC, Clinical S. epidermidis (MSSA) 43/12” value [3] was 64 µg/mL, the “MIC, Clinical S. epidermidis (MSSA) 37/12” value [4] was 128 µg/mL and the “MIC, S. epidermidis ATCC 12228” value ([5]; 18 to 24 h) was 64 µg/mL. The “MIC, Clinical S. aureus (MRSA) 44/12” value [6] was 256 µg/mL, the “MIC, Clinical S. aureus (MSSA) 26/11” value [7] was 256 µg/mL and the “MIC, Clinical S. aureus (MSSA) 30/11” value [8] was 256 µg/mL. The “MIC, Clinical S. aureus (MRSA) 31/12” value [9] was 256 µg/mL, the “MIC, E. coli ATCC BAA-198” value ([10]; 18 to 24 h) was 0.125 µg/mL and the “MIC, S. aureus ATCC 29213 (MSSA)” value [11] was 256 µg/mL. The “MIC, S. aureus ATCC 43300 (MRSA)” value [12] was 256 µg/mL and the “MIC, S. aureus ATCC 700787 (VISA)” value [13] was >256 µg/mL.
